Test results published in ChEMBL document CHEMBL4507329, “Data for DCP probe BTZO-1” (2021).

Tests used:
[1] = target: Homeodomain-interacting protein kinase 4 (Homo sapiens) (UniProt Q8NE63); conditions: Compound concentration 1000.0 nM
[2] = target: Kappa-type opioid receptor (Homo sapiens) (UniProt P41145); conditions: Compound concentration 10.0 uM
[3] = system: Epidermal growth factor receptor (Homo sapiens), P00533 [UNDEFINED MUTATION]; conditions: Compound concentration 1000.0 nM
[4] = target: RAC-alpha serine/threonine-protein kinase (Homo sapiens) (UniProt P31749); conditions: Compound concentration 1000.0 nM
[5] = target: Mitotic checkpoint serine/threonine-protein kinase BUB1 (Homo sapiens) (UniProt O43683); conditions: Compound concentration 1000.0 nM
[6] = target: Tyrosine-protein kinase CSK (Homo sapiens) (UniProt P41240); conditions: Compound concentration 1000.0 nM
[7] = target: Serine/threonine-protein kinase Chk1 (Homo sapiens) (UniProt O14757); conditions: Compound concentration 1000.0 nM
[8] = target: Histamine H4 receptor (Homo sapiens) (UniProt Q9H3N8); conditions: Compound concentration 10.0 uM
[9] = target: Cyclin-dependent kinase 7 (Homo sapiens) (UniProt P50613); conditions: Compound concentration 1000.0 nM
[10] = target: Calcium/calmodulin-dependent protein kinase type 1B (Homo sapiens) (UniProt Q6P2M8); conditions: Compound concentration 1000.0 nM
[11] = system: Receptor-type tyrosine-protein kinase FLT3 (Homo sapiens), P36888 [K663Q]; conditions: Compound concentration 1000.0 nM
[12] = target: AP2-associated protein kinase 1 (Homo sapiens) (UniProt Q2M2I8); conditions: Compound concentration 1000.0 nM
[13] = target: Beta-adrenergic receptor kinase 1 (Homo sapiens) (UniProt P25098); conditions: Compound concentration 1000.0 nM
[14] = target: Cyclin-dependent kinase 5 (Homo sapiens) (UniProt Q00535); conditions: Compound concentration 1000.0 nM
[15] = target: Serine/threonine-protein kinase tousled-like 2 (Homo sapiens) (UniProt Q86UE8); conditions: Compound concentration 1000.0 nM
[16] = system: Tyrosine-protein kinase ABL1 (Homo sapiens), P00519 [T315I]; conditions: Compound concentration 1000.0 nM
[17] = target: Cyclin-dependent kinase 11B (Homo sapiens) (UniProt P21127); conditions: Compound concentration 1000.0 nM
[18] = target: Mitogen-activated protein kinase 8 (Homo sapiens) (UniProt P45983); conditions: Compound concentration 1000.0 nM
[19] = target: STE20/SPS1-related proline-alanine-rich protein kinase (Homo sapiens) (UniProt Q9UEW8); conditions: Compound concentration 1000.0 nM
[20] = target: Protein kinase C theta type (Homo sapiens) (UniProt Q04759); conditions: Compound concentration 1000.0 nM
[21] = system: Tyrosine-protein kinase ABL1 (Homo sapiens), P00519 [F317L]; conditions: Compound concentration 1000.0 nM
[22] = target: Mitogen-activated protein kinase kinase kinase kinase 4 (Homo sapiens) (UniProt O95819); conditions: Compound concentration 1000.0 nM
[23] = target: Serine/threonine-protein kinase STK11 (Homo sapiens) (UniProt Q15831); conditions: Compound concentration 1000.0 nM
[24] = target: Ephrin type-A receptor 7 (Homo sapiens) (UniProt Q15375); conditions: Compound concentration 1000.0 nM
[25] = target: Dual specificity mitogen-activated protein kinase kinase 5 (Homo sapiens) (UniProt Q13163); conditions: Compound concentration 1000.0 nM
[26] = target: Mitogen-activated protein kinase kinase kinase 10 (Homo sapiens) (UniProt Q02779); conditions: Compound concentration 1000.0 nM
[27] = target: Serine/threonine-protein kinase BRSK1 (Homo sapiens) (UniProt Q8TDC3); conditions: Compound concentration 1000.0 nM
[28] = target: 5-hydroxytryptamine receptor 1E (Homo sapiens) (UniProt P28566); conditions: Compound concentration 10.0 uM
[29] = target: Tyrosine-protein kinase Blk (Homo sapiens) (UniProt P51451); conditions: Compound concentration 1000.0 nM
[30] = target: Serine/threonine-protein kinase MARK2 (Homo sapiens) (UniProt Q7KZI7); conditions: Compound concentration 1000.0 nM
[31] = target: Vascular endothelial growth factor receptor 2 (Homo sapiens) (UniProt P35968); conditions: Compound concentration 1000.0 nM
[32] = target: Ribosomal protein S6 kinase alpha-2 (Homo sapiens) (UniProt Q15349); conditions: Compound concentration 1000.0 nM
[33] = target: Serine/threonine-protein kinase TNNI3K (Homo sapiens) (UniProt Q59H18); conditions: Compound concentration 1000.0 nM
[34] = target: Mitogen-activated protein kinase kinase kinase 7 (Homo sapiens) (UniProt O43318); conditions: Compound concentration 1000.0 nM
[35] = target: Mitogen-activated protein kinase kinase kinase 1 (Homo sapiens) (UniProt Q13233); conditions: Compound concentration 1000.0 nM
[36] = target: Dual specificity mitogen-activated protein kinase kinase 6 (Homo sapiens) (UniProt P52564); conditions: Compound concentration 1000.0 nM
[37] = target: Protein-tyrosine kinase 6 (Homo sapiens) (UniProt Q13882); conditions: Compound concentration 1000.0 nM
[38] = target: Serine/threonine-protein kinase SIK3 (Homo sapiens) (UniProt Q9Y2K2); conditions: Compound concentration 1000.0 nM
[39] = target: Calcium/calmodulin-dependent protein kinase type II subunit delta (Homo sapiens) (UniProt Q13557); conditions: Compound concentration 1000.0 nM
[40] = system: Phosphatidylinositol 4,5-bisphosphate 3-kinase catalytic subunit alpha isoform (Homo sapiens), P42336 [C420R]; conditions: Compound concentration 1000.0 nM
[41] = target: Tyrosine-protein kinase Fyn (Homo sapiens) (UniProt P06241); conditions: Compound concentration 1000.0 nM
[42] = target: Tyrosine-protein kinase HCK (Homo sapiens) (UniProt P08631); conditions: Compound concentration 1000.0 nM
[43] = target: Ribosomal protein S6 kinase alpha-2 (Homo sapiens) (UniProt Q15349); conditions: Compound concentration 1000.0 nM; remark: listed apart in the source
[44] = target: cGMP-dependent protein kinase 1 (Homo sapiens) (UniProt Q13976); conditions: Compound concentration 1000.0 nM
[45] = target: Calcium/calmodulin-dependent protein kinase type II subunit beta (Homo sapiens) (UniProt Q13554); conditions: Compound concentration 1000.0 nM

Chain of Ribosomal protein S6 kinase alpha-2 (Homo sapiens) (Q15349 whole entry): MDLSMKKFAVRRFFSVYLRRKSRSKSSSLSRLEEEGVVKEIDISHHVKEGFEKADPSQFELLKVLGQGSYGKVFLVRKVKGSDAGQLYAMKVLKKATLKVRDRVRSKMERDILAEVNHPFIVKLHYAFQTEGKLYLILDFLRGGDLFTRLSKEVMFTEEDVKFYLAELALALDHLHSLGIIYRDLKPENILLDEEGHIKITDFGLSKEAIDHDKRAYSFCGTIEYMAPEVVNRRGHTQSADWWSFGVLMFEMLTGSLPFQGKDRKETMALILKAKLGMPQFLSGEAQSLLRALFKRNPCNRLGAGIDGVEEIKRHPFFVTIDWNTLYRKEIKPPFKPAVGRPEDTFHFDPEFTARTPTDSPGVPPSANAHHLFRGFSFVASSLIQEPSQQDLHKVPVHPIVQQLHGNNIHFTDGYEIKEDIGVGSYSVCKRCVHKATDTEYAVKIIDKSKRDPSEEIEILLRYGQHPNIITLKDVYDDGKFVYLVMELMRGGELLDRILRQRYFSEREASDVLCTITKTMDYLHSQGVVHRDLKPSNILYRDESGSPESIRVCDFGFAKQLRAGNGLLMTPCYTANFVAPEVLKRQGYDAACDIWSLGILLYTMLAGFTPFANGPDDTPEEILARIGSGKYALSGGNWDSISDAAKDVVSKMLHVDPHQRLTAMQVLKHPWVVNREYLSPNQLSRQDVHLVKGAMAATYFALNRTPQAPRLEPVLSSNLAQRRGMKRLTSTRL
Chain of Serine/threonine-protein kinase Chk1 (Homo sapiens) (O14757 whole entry): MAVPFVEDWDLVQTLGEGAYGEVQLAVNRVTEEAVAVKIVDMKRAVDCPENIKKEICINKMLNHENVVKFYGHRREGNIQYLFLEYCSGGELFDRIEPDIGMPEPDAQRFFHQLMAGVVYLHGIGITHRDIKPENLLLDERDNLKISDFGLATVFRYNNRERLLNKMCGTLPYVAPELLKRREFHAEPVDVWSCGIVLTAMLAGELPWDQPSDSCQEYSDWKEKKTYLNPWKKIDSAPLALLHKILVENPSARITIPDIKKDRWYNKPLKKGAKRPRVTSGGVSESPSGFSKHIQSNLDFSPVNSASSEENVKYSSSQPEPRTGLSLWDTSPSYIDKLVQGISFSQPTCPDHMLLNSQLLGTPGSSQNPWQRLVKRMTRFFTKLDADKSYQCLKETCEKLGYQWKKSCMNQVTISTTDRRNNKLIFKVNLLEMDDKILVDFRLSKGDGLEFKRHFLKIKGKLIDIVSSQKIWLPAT
Chain of Epidermal growth factor receptor (Homo sapiens), P00533 [UNDEFINED MUTATION] (P00533 whole entry, looked up, change not shown): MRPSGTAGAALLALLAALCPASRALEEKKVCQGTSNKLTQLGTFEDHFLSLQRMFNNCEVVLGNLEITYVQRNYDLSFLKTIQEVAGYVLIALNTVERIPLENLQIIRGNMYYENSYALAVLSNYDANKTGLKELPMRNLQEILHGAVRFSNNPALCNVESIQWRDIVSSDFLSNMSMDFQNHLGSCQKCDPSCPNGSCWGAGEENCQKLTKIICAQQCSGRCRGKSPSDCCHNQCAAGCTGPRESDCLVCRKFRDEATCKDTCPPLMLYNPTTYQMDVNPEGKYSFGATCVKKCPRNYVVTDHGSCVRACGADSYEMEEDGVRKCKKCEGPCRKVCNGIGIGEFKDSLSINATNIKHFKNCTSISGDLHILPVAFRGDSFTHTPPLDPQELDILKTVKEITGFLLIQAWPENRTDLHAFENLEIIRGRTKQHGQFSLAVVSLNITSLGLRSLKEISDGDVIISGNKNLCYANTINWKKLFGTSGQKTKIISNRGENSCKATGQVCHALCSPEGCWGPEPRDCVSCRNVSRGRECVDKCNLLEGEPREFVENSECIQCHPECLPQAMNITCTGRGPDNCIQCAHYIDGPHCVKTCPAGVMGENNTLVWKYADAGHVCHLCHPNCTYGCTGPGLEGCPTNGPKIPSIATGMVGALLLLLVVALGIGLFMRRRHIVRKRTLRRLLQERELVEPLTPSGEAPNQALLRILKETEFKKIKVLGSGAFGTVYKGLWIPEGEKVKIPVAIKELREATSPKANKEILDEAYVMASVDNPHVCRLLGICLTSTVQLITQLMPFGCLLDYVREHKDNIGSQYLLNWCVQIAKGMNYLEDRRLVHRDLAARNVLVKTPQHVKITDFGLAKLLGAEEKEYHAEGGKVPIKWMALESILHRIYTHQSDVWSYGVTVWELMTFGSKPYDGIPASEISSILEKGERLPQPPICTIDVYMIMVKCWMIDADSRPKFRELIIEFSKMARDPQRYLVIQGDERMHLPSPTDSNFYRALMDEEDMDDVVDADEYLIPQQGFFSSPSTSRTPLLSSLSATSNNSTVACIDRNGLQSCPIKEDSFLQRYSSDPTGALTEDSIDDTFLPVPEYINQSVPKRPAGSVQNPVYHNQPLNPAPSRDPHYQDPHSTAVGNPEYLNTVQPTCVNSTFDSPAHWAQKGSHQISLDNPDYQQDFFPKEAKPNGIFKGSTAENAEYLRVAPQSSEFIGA
Chain of Serine/threonine-protein kinase TNNI3K (Homo sapiens) (Q59H18 whole entry): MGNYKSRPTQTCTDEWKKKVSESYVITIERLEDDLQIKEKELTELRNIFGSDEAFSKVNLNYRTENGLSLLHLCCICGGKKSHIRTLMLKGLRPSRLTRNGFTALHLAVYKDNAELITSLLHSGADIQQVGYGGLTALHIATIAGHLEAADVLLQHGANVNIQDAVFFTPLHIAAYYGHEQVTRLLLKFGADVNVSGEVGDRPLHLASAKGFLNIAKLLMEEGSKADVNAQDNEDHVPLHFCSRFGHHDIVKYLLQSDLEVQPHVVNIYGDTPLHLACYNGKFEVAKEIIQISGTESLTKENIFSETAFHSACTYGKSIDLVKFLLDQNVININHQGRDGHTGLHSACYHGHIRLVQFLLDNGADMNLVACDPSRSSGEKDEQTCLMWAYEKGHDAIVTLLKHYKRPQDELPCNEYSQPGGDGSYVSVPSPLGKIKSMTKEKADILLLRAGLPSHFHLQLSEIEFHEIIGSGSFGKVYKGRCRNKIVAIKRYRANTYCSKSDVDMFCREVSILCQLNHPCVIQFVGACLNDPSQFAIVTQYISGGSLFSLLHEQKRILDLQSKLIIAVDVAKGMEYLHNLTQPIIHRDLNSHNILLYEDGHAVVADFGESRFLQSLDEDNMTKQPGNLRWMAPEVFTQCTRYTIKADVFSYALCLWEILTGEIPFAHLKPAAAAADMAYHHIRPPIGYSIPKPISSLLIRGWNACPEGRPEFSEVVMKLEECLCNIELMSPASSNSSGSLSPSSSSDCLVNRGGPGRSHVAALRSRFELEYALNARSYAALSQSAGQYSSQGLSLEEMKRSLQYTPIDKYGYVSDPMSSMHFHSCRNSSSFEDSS
Chain of RAC-alpha serine/threonine-protein kinase (Homo sapiens) (P31749 whole entry): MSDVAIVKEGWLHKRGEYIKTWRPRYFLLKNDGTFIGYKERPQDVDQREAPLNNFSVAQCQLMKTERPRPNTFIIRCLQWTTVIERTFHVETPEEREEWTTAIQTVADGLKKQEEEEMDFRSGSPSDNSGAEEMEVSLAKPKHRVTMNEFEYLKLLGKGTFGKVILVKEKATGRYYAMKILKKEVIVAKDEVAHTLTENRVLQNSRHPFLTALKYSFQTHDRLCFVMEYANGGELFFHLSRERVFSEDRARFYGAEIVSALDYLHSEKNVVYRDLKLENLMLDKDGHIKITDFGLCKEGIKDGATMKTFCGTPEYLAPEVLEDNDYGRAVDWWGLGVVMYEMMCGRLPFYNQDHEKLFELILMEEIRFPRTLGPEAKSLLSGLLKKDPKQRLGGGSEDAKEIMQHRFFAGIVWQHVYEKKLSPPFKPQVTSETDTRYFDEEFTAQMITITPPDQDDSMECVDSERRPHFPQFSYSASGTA
Chain of Mitogen-activated protein kinase kinase kinase 7 (Homo sapiens) (O43318 whole entry): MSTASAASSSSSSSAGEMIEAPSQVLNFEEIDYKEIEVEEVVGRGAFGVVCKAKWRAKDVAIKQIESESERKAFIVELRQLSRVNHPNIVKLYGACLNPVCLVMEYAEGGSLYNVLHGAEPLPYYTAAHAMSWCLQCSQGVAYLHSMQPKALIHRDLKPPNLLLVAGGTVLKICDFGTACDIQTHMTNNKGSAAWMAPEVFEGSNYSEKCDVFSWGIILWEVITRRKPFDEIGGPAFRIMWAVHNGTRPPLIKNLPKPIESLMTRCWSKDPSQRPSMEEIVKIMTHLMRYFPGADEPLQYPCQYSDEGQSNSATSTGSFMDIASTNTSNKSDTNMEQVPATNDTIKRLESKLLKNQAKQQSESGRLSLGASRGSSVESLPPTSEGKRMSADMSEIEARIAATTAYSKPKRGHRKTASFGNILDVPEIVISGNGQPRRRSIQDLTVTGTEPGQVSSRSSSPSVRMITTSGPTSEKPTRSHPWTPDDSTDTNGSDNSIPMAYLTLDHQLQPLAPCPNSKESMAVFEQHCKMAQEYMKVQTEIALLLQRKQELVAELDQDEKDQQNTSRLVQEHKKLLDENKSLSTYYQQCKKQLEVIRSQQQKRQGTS
Chain of Homeodomain-interacting protein kinase 4 (Homo sapiens) (Q8NE63 whole entry): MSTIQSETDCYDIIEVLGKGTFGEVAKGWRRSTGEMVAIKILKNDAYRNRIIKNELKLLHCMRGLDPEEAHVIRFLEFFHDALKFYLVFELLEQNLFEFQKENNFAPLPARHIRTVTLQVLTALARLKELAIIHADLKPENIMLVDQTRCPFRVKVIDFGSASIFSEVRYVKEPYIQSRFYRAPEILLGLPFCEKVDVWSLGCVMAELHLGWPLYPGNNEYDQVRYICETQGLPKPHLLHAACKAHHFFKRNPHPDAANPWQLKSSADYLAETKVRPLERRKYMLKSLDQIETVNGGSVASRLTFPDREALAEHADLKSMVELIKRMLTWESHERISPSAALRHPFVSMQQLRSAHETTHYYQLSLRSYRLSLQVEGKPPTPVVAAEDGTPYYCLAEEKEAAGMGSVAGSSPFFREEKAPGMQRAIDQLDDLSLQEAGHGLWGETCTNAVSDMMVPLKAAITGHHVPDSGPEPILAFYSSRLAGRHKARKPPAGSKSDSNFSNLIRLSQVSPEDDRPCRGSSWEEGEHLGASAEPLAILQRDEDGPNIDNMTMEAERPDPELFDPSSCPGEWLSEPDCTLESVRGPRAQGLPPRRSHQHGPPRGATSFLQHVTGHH

O=c1nc(-c2ccccn2)sc2ccccc12 [BTZO-1]
inactive: residual activity [1] 85% | inhibition [2] 1.65% | residual activity [3] 100% | residual activity [4] 100% | residual activity [5] 100% | residual activity [6] 100% | residual activity [7] 85% | inhibition [8] -0.975% | residual activity [9] 69% | residual activity [10] 56% | residual activity [11] 100% | residual activity [12] 100% | residual activity [13] 65% | residual activity [14] 85% | residual activity [15] 96% | residual activity [16] 100% | residual activity [17] 100% | residual activity [18] 100% | residual activity [19] 100% | residual activity [20] 90% | residual activity [21] 100% | residual activity [22] 100% | residual activity [23] 79% | residual activity [24] 80% | residual activity [25] 79% | residual activity [26] 100% | residual activity [27] 91% | inhibition [28] -1.13% | residual activity [29] 88% | residual activity [30] 78% | residual activity [31] 100% | residual activity [32] 100% | residual activity [33] 87% | residual activity [34] 78% | residual activity [35] 65% | residual activity [36] 100% | residual activity [37] 100% | residual activity [38] 85% | residual activity [39] 90% | residual activity [40] 94% | residual activity [41] 100% | residual activity [42] 94% | residual activity [43] 100% | residual activity [44] 100% | residual activity [45] 100%

O=C1NC(c2ccccn2)Sc2ccccc21 (stereo not given) [BTZO-4]
inactive: residual activity [1] 70% | inhibition [2] 4.68% | residual activity [3] 100% | residual activity [4] 89% | residual activity [5] 100% | residual activity [6] 100% | residual activity [7] 88% | inhibition [8] 1.89% | residual activity [9] 77% | residual activity [10] 71% | residual activity [11] 82% | residual activity [12] 100% | residual activity [13] 58% | residual activity [14] 86% | residual activity [15] 96% | residual activity [16] 100% | residual activity [17] 100% | residual activity [18] 100% | residual activity [19] 89% | residual activity [20] 76% | residual activity [21] 100% | residual activity [22] 100% | residual activity [23] 87% | residual activity [24] 72% | residual activity [25] 87% | residual activity [26] 94% | residual activity [27] 76% | inhibition [28] -0.383% | residual activity [29] 77% | residual activity [30] 92% | residual activity [31] 82% | residual activity [32] 97% | residual activity [33] 87% | residual activity [34] 99% | residual activity [35] 55% | residual activity [36] 100% | residual activity [37] 100% | residual activity [38] 70% | residual activity [39] 75% | residual activity [40] 100% | residual activity [41] 100% | residual activity [42] 90% | residual activity [43] 93% | residual activity [44] 100% | residual activity [45] 100%
